Test results as given in ChEMBL document CHEMBL1122188, “A quantitative structure-activity relationship study of the inhibitory action of a series of enkephalin-like peptides in the guinea pig ileum and mouse vas deferens bioassays” (J Med Chem, 1982).
Non-standard residues stand in square brackets, D forms with d. Residues, ends and D or L forms follow the SMILES beside them. Cha = N[C@@H](CC1CCCCC1)C(=O)O

Experiments:
Conditions in all cases: read-out: Log 1/IC50 (converted)
Cavia porcellus = species on record: Cavia porcellus; assay: Inhibitory activity for contractions of electrically stimulated guinea pig ileum was determined; assay type: functional, organism-based
Mus musculus = species on record: Mus musculus; assay: (§1) Inhibitory activity contractions of electrically stimulated mouse vas deferens was determined; assay type: functional, organism-based
[1] = target: Delta-type opioid receptor (Mus musculus, UniProt P32300); assay: as §1; assay type: functional, tissue-based
Delta-type opioid receptor, sequence (P32300 whole entry): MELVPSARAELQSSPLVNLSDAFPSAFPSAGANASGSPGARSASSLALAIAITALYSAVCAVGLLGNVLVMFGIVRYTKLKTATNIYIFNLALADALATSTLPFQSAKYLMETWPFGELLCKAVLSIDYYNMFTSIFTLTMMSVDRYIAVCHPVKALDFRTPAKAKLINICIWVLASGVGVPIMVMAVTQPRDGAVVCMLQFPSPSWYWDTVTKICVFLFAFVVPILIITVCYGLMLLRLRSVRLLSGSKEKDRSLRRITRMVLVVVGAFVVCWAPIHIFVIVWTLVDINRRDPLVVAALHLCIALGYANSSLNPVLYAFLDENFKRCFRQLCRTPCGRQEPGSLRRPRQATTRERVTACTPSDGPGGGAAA

SMILES	IC50 (Cavia porcellus) [nM]	IC50 (Mus musculus) [nM]	IC50 [1] [nM]
CC(C)C[C@H](NC(=O)[C@H](Cc1ccccc1)NC(=O)CNC(=O)[C@H](C)NC(=O)[C@@H](N)Cc1ccc(O)cc1)C(N)=O	11.2	9.55	–
CSCC[C@H](NC(=O)[C@H](Cc1ccccc1)NC(=O)CNC(=O)[C@H](C)NC(=O)[C@@H](N)Cc1ccc(O)cc1)C(N)=O	11.5	–	–
C[C@H](NC(=O)[C@@H](N)Cc1ccc(O)cc1)C(=O)NCC(=O)N[C@@H](Cc1ccc([N+](=O)[O-])cc1)C(=O)N[C@@H](CCC(C)(C)C)C(N)=O	1.91	–	–
COc1ccc(C[C@H](N)C(=O)N[C@@H](C)C(=O)NCC(=O)N[C@@H](Cc2ccc([N+](=O)[O-])cc2)C(=O)N[C@@H](CCSC)C(N)=O)cc1	2.29	–	3.16
C[C@H](NC(=O)[C@@H](N)Cc1ccc(O)cc1)C(=O)NCC(=O)N[C@@H](Cc1ccc([N+](=O)[O-])cc1)C(=O)N[C@@H](CC12CC3CC(CC(C3)C1)C2)C(N)=O	3.8	–	20.4
CC(C)C[C@H](NC(=O)[C@H](Cc1ccc([N+](=O)[O-])cc1)NC(=O)CNC(=O)[C@H](C)NC(=O)[C@@H](N)Cc1ccc(O)cc1)C(N)=O	3.16	–	–
COc1ccc(C[C@H](N)C(=O)N[C@@H](C)C(=O)NCC(=O)N[C@@H](CC2CCCCC2)C(=O)N[C@@H](CCSC)C(N)=O)cc1 (H-Y(Me)AG[Cha]M-NH2)	72.4	–	–
C[C@H](NC(=O)[C@@H](N)Cc1ccc(O)cc1)C(=O)NCC(=O)N[C@@H](Cc1ccccc1)C(=O)N[C@H](C(N)=O)C(C)(C)C (HELM PEPTIDE1{Y.A.G.F.[CC(C)(C)[C@H](N[*:1])C(=O)[*:2]].[am]}$$$$V2.0)	11.7	–	9.77
C[C@H](NC(=O)[C@@H](N)Cc1ccc(O)cc1)C(=O)NCC(=O)N[C@@H](Cc1ccccc1)C(=O)N[C@@H](CC12CC3CC(CC(C3)C1)C2)C(N)=O (HELM PEPTIDE1{Y.A.G.F.[O=C([C@H](CC12CC3CC(CC(C3)C1)C2)N[*:1])[*:2]].[am]}$$$$V2.0)	6.03	–	50.1
CC(C)C[C@H](NC(=O)[C@H](CC1CCCCC1)NC(=O)CNC(=O)[C@H](C)NC(=O)[C@@H](N)Cc1ccc(O)cc1)C(N)=O (HELM PEPTIDE1{Y.A.G.[Cha].L.[am]}$$$$V2.0)	91.2	–	–
CC(C)C[C@H](NC(=O)[C@H](CC12CC3CC(CC(C3)C1)C2)NC(=O)CNC(=O)[C@H](C)NC(=O)[C@@H](N)Cc1ccc(O)cc1)C(N)=O (HELM PEPTIDE1{Y.A.G.[O=C([C@H](CC12CC3CC(CC(C3)C1)C2)N[*:1])[*:2]].L.[am]}$$$$V2.0)	1000	–	2950
